# Literature values, collected in patent publication US20260182571A1, “A ME[…] AND USE THEREOF” (I-TECH AB, priority 2022, published 2026).
# Details: pH 7 and 20° C.
structure (smiles),measurement,value
"On1ccccc1=S.On1ccccc1=S.[Cu] [CuPT, copper (II) pyrithione]",(equilibrium) water solubility,less than 0.039 mg/L
